What all share (experiment): In vitro antibacterial activity, two-fold agar-plate dilution method
Format in all cases: cell-based

Experiment [1] concerns Proteus vulgaris IAM-1025. The conditions noted are these: IAM1025, HI-agar, 37° C., 20 hours. As for the experimental part: (§1) (1) Test method In vitro antibacterial activity was determined by the two-fold agar-plate dilution method as described below. One loopful of an overnight culture of each test strain in Trypticase-soy broth was streaked on heart infusion agar (HI-agar) containing graded concentrations of the test compound and incubated at 37° C. for 20 hours. The minimal inhibitory concentration (MIC) was expressed in μg/ml.

A further experiment deals with Proteus mirabilis 18. The conditions noted are these: HI-agar, 37° C., 20 hours. As for the experimental part:
as §1

Experiment [2] deals with Staphylococcus aureus 209P JC-1. The conditions noted are these: HI-agar, 37° C., 20 hours. As for the experimental part:
as §1

Experiment [3] has as its system Escherichia coli NIHJ JC-2. The conditions noted are these: NIHJJC2, HI-agar, 37° C., 20 hours. As for the experimental part:
as §1

The test system of experiment [4] is Pseudomonus aeruginosa NCTC-10490. The conditions noted are these: HI-agar, 37° C., 20 hours. As to the method: as §1
The subject of another experiment is Klebsiella pneumoniae 20. The conditions noted are these: HI-agar, 37° C., 20 hours. As for the experimental part:
as §1

Values after ≈ are worked out from the molar mass of the structure shown.

As a reminder, the MIC is the lowest concentration that inhibits growth of the organism. Read a high MIC as weaker potency. For the compound `CO/N=C(\C(=O)NC1C(=O)N2C(C(=O)O)=C(CSc3nncs3)CSC12)c1nc(N)sc1Br` (stereo not drawn) [compound 1, 7-[2-(2-amino-5-bromothiazol-4-yl)-2-methoxyiminoacetamido]-3-(1,3,4-thiadiazol-2-ylthiomethyl)-3-cephem-4-carboxylic acid (syn isomer)], the MIC in experiment [1] turned out to be 6.25 µg/mL (≈ 10.5 µM); in the experiment on Proteus mirabilis 18, 0.78 µg/mL (≈ 1.32 µM); in experiment [2], 1.56 µg/mL (≈ 2.63 µM); in experiment [3], 0.78 µg/mL (≈ 1.32 µM); in experiment [4] it was 3.13 µg/mL (≈ 5.28 µM); against Klebsiella pneumoniae 20, 0.78 µg/mL (≈ 1.32 µM).

Regarding `CO/N=C(\C(=O)NC1C(=O)N2C(C(=O)O)=C(CSc3nnc(C)s3)CSC12)c1nc(N)sc1Br` (stereo not drawn) [compound 2, 7-[2-(2-amino-5-bromothiazol-4-yl)-2-methoxyiminoacetamide]-3-(5-methyl-1,3,4-thiadiazol-2-ylthiomethyl)-3-cephem-4-carboxylic acid (syn isomer)], the MIC is 12.5 µg/mL (≈ 20.6 µM) in experiment [1]; 6.25 µg/mL (≈ 10.3 µM) in the experiment on Proteus mirabilis 18; 3.13 µg/mL (≈ 5.16 µM) in experiment [2]; 1.56 µg/mL (≈ 2.57 µM) in experiment [3]; 6.25 µg/mL (≈ 10.3 µM) in experiment [4]; 3.13 µg/mL (≈ 5.16 µM) against Klebsiella pneumoniae 20.

`CO/N=C(\C(=O)NC1C(=O)N2C(C(=O)O)=C(CSc3nnnn3C)CSC12)c1nc(N)sc1Br` (stereo not drawn) [compound 3, 7-[2-(2-amino-5-bromothiazol-4-yl)-2-methoxyiminoacetamido]-3-(1-methyl-1H-tetrazol-5-ylthiomethyl)-3-cephem-4-carboxylic acid (syn isomer)]: the MIC in experiment [1] turned out to be 12.5 µg/mL (≈ 21.2 µM); in the experiment with Proteus mirabilis 18, 3.13 µg/mL (≈ 5.3 µM); in experiment [2] it was 3.13 µg/mL (≈ 5.3 µM); in experiment [3], 1.56 µg/mL (≈ 2.64 µM); in experiment [4], 3.13 µg/mL (≈ 5.3 µM); in the experiment on Klebsiella pneumoniae 20 it was 0.39 µg/mL (≈ 0.66 µM).

`CO/N=C(\C(=O)NC1C(=O)N2C(C(=O)O)=C(COC(=O)c3ccccc3)CSC12)c1nc(N)sc1Br` (stereo not drawn) [compound 4, 7-[2-(2-amino-5-bromothiazol-4-yl)-2-methoxyiminoacetamido]-3-benzoyloxymethyl-3-cephem-4-carboxylic acid (syn isomer)]: the MIC was 12.5 µg/mL (≈ 21 µM) in experiment [1]; 3.13 µg/mL (≈ 5.25 µM) with Proteus mirabilis 18; 1.56 µg/mL (≈ 2.62 µM) in experiment [2]; 6.25 µg/mL (≈ 10.5 µM) in experiment [3]; 6.25 µg/mL (≈ 10.5 µM) in experiment [4]; 1.56 µg/mL (≈ 2.62 µM) with Klebsiella pneumoniae 20.

In the case of `CO/N=C(\C(=O)NC1C(=O)N2C(C(=O)O)=C(CSc3nncs3)CSC12)c1nc(N)sc1Cl` (stereo not drawn) [compound 5, 7-[2-(2-amino-5-chlorothiazol-4-yl)-2-methoxyiminoacetamido]-3-(1,3,4-thiadiazol-2-ylthiomethyl)-3-cephem-4-carboxylic acid (syn isomer)], the MIC is 1.56 µg/mL (≈ 2.85 µM) in experiment [1]; 0.78 µg/mL (≈ 1.42 µM) in the experiment with Proteus mirabilis 18; 3.13 µg/mL (≈ 5.71 µM) in experiment [2]; 1.56 µg/mL (≈ 2.85 µM) in experiment [3]; 1.56 µg/mL (≈ 2.85 µM) in experiment [4]; 0.39 µg/mL (≈ 0.712 µM) in the experiment on Klebsiella pneumoniae 20.

(Values after patent US4729991A, “Cephem compounds” (Fujisawa Pharmaceutical Co., Ltd., priority 1978, dated 1988).)
